Measurements reported in PMC11831560, “Development of the Pyrido[2,3-d]pyrimidin-7(8H)-one Scaffold toward Potent and Selective NUAK1 Inhibitors” (ACS Medicinal Chemistry Letters, 2025).

Experiments:
Test in all cases: Kinase panel radiometric filter binding (33P-ATP)
Type in all cases: biochemical
Set-up in all cases: dose or concentration left out as unconfirmed
[1] = target: Aurora A (Homo sapiens, UniProt O14965)
Outline: (§1)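 A single 1 µM concentration of each compound is applied to a panel of 140 kinases. Phosphotransfer from 33P-ATP is then quantified by radiometric filter binding. Kinases left with <20% activity are followed up by pIC50 determination.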

[2] = target: BRSK1 (Homo sapiens, UniProt Q8TDC3)
Outline: as §1

[3] = target: BRSK2 (Homo sapiens, UniProt Q8IWQ3)
Outline: as §1

[4] = target: BTK (Homo sapiens, UniProt Q06187)
Outline: as §1

[5] = target: CAMK1 (Homo sapiens, UniProt Q14012)
Outline: as §1

[6] = target: CAMKKb (Homo sapiens, UniProt Q96RR4)
Outline: as §1

[7] = target: CLK2 (Homo sapiens, UniProt P49760)
Outline: as §1

[8] = target: DDR2 (Homo sapiens, UniProt Q16832)
Outline: as §1

[9] = target: EPH-A4 (Homo sapiens, UniProt P54764)
Outline: as §1

[10] = target: EPH-B1 (Homo sapiens, UniProt P54762)
Outline: as §1

[11] = target: EPH-B3 (Homo sapiens, UniProt P54753)
Outline: as §1

[12] = target: EPH-B4 (Homo sapiens, UniProt P54760)
Outline: as §1

[13] = target: FGF-R1 (Homo sapiens, UniProt P11362)
Outline: as §1

[14] = target: HIPK1 (Homo sapiens, UniProt Q86Z02)
Outline: as §1

[15] = target: HIPK2 (Homo sapiens, UniProt Q9H2X6)
Outline: as §1

[16] = target: HIPK3 (Homo sapiens, UniProt Q9H422)
Outline: as §1

[17] = target: IRAK1 (Homo sapiens, UniProt P51617)
Outline: as §1

[18] = target: MAP4K3 (Homo sapiens, UniProt Q8IVH8)
Outline: as §1

[19] = target: MAPKAP-K2 (Homo sapiens, UniProt P49137)
Outline: as §1

[20] = target: MINK1 (Homo sapiens, UniProt Q8N4C8)
Outline: as §1

[21] = target: MKK1 (Homo sapiens, UniProt Q02750)
Outline: as §1

[22] = target: MLK1 (Homo sapiens, UniProt P80192)
Outline: as §1

[23] = target: MLK3 (Homo sapiens, UniProt Q16584)
Outline: as §1

[24] = target: MNK1 (Homo sapiens, UniProt Q9BUB5)
Outline: as §1

[25] = target: NEK6 (Homo sapiens, UniProt Q9HC98)
Outline: as §1

[26] = tested on: PINK
Outline: as §1

[27] = target: PKA (Homo sapiens, UniProt P17612)
Outline: as §1

[28] = target: PKCa (Homo sapiens, UniProt P17252)
Outline: as §1

[29] = target: PKCγ (Homo sapiens, UniProt P05129)
Outline: as §1

[30] = target: PRK2 (Homo sapiens, UniProt Q16513)
Outline: as §1

[31] = target: RIPK2 (Homo sapiens, UniProt O43353)
Outline: as §1

[32] = target: SYK (Homo sapiens, UniProt P43405)
Outline: as §1

[33] = target: TESK1 (Homo sapiens, UniProt Q15569)
Outline: as §1

[34] = target: TTBK2 (Homo sapiens, UniProt Q6IQ55)
Outline: as §1

[35] = target: ZAP70 (Homo sapiens, UniProt P43403)
Outline: as §1

MINK1, sequence (Q8N4C8 whole entry): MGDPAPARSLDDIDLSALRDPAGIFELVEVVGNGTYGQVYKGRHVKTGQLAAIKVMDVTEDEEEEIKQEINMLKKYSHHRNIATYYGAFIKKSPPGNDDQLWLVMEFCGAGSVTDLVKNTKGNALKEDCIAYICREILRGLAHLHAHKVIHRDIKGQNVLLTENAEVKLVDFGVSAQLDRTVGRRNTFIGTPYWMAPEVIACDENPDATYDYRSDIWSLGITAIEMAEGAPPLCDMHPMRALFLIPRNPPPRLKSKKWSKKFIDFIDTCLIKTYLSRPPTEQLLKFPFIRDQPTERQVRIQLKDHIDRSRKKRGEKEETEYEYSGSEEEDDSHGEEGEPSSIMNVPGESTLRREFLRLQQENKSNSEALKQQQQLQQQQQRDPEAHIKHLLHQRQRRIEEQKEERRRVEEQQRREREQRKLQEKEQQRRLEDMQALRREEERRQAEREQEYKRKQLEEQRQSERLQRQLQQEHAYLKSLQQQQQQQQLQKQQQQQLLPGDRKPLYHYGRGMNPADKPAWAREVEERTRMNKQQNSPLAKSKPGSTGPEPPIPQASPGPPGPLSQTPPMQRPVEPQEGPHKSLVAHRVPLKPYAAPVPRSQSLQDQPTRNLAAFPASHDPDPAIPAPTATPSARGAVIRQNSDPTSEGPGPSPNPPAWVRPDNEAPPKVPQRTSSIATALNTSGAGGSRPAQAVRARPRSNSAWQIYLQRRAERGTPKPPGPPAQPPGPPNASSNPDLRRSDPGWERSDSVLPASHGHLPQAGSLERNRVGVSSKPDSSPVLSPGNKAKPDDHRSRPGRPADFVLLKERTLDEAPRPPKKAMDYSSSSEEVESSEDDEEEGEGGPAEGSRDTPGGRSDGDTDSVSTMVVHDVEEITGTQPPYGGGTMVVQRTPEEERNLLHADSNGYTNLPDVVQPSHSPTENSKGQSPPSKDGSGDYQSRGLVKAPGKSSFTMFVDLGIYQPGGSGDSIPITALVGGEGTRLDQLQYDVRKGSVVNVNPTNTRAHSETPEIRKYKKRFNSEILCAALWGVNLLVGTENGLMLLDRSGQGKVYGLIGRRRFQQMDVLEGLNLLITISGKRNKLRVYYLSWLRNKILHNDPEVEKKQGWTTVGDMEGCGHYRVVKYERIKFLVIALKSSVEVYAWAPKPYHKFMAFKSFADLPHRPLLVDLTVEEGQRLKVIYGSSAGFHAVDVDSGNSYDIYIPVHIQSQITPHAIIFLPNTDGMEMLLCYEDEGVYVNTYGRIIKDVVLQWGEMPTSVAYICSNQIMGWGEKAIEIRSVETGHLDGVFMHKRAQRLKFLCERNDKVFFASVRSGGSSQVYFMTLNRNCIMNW
BRSK2, sequence (Q8IWQ3 whole entry): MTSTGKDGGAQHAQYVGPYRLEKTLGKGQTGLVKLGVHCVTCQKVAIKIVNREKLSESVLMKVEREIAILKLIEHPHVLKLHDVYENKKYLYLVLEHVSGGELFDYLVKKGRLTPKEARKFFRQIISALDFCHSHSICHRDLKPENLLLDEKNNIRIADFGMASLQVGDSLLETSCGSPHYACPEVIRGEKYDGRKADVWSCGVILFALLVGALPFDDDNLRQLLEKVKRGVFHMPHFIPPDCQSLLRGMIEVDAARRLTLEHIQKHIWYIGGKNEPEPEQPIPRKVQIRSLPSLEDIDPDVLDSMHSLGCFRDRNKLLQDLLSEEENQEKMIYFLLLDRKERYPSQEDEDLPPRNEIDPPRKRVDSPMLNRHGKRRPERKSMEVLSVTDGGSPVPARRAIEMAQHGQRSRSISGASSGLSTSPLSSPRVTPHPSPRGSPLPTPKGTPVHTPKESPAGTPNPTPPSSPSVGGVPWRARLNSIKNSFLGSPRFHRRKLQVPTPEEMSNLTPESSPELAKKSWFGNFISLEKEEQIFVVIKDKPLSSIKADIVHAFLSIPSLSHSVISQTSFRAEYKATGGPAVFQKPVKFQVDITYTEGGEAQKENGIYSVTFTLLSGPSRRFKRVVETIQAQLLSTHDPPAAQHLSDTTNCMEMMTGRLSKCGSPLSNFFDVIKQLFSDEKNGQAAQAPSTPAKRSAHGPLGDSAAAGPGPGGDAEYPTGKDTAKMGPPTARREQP
CLK2, sequence (P49760 whole entry): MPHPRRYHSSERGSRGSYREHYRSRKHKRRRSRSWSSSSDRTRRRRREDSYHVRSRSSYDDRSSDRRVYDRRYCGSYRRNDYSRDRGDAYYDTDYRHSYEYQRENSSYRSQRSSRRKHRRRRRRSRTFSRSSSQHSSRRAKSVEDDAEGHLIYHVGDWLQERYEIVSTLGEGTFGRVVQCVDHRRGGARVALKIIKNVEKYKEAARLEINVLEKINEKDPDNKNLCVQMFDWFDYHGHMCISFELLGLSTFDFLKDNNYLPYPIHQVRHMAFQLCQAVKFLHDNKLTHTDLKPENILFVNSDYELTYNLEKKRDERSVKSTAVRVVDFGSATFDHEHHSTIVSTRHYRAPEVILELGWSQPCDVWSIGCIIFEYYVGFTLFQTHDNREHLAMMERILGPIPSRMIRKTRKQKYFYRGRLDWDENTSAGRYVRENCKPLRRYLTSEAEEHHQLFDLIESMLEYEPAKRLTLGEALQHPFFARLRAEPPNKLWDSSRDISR
DDR2, sequence (Q16832 22-855): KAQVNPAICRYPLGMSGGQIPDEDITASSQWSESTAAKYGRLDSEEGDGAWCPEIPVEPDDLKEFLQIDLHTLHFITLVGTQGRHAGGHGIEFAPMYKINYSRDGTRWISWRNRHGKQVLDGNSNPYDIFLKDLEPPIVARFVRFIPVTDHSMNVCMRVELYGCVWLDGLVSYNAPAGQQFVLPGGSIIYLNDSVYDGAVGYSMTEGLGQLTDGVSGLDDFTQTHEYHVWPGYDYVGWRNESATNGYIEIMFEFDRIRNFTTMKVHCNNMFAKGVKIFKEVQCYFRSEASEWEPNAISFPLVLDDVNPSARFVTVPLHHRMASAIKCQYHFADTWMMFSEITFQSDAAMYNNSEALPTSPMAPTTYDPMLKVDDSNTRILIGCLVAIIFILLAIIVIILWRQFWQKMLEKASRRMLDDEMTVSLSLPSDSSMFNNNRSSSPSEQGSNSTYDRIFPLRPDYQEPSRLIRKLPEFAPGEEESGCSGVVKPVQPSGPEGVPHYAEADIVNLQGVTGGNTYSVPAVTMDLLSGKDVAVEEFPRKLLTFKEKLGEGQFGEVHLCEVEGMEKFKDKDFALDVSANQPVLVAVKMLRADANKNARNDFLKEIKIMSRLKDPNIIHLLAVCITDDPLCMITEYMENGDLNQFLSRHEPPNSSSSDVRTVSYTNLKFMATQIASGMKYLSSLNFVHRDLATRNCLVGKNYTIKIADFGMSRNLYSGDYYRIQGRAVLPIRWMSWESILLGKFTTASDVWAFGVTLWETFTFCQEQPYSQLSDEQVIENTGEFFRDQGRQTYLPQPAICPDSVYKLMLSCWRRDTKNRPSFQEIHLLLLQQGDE
EPH-B3, sequence (P54753 34-998): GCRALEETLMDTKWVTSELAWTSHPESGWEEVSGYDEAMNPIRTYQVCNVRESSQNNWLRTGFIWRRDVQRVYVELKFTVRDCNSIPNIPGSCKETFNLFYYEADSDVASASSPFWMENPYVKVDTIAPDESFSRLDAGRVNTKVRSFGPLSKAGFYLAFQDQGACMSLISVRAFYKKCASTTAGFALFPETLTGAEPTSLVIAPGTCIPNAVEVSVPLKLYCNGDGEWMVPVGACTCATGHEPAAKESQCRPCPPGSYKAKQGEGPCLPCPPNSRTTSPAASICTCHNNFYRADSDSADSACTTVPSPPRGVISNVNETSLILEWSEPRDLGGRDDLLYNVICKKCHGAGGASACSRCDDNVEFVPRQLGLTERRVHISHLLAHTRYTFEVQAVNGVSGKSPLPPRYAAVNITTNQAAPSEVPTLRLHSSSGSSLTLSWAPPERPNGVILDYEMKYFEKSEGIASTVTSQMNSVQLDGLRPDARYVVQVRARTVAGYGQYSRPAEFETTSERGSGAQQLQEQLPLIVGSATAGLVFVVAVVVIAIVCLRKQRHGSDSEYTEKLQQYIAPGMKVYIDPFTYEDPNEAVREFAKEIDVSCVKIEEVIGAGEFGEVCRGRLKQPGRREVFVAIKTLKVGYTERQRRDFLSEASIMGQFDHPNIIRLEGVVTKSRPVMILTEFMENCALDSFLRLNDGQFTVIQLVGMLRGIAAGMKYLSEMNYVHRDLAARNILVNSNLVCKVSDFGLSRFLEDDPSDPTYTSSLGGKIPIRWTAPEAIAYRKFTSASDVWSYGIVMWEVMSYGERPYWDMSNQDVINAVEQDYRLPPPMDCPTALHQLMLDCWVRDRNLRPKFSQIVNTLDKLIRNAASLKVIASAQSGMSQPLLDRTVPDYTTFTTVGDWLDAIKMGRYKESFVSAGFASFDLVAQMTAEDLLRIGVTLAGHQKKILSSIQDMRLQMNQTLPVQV
ZAP70, sequence (P43403 whole entry): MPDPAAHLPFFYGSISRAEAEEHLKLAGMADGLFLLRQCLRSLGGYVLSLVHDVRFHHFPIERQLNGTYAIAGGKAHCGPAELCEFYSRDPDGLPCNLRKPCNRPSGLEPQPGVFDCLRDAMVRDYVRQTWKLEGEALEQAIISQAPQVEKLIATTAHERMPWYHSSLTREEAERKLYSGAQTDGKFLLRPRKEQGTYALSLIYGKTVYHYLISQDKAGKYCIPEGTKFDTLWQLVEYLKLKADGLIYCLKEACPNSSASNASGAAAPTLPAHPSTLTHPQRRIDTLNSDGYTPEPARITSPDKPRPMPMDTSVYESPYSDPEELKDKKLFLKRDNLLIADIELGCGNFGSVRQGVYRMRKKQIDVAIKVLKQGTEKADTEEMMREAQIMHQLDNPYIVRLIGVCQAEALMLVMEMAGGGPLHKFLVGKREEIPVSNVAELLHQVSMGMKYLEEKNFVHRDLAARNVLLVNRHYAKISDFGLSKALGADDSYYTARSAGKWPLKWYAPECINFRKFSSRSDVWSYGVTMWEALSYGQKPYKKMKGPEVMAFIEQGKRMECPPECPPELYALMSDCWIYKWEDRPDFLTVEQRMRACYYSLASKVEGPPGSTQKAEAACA

SMILES | % activity remaining [1] [%] | % activity remaining [2] [%] | % activity remaining [3] [%] | % activity remaining [4] [%] | % activity remaining [5] [%] | % activity remaining [6] [%] | % activity remaining [7] [%] | % activity remaining [8] [%] | % activity remaining [9] [%] | % activity remaining [10] [%] | % activity remaining [11] [%] | % activity remaining [12] [%] | % activity remaining [13] [%] | % activity remaining [14] [%] | % activity remaining [15] [%] | % activity remaining [16] [%] | % activity remaining [17] [%] | % activity remaining [18] [%] | % activity remaining [19] [%] | % activity remaining [20] [%] | other results
CN1C2CC1CN(c1ccc(Nc3ncc4ccn(CC5CCOCC5)c4n3)cc1)C2 [Compound 24] | 54 | 75 | 75 | 82 | 129 | 43 | 90 | 82 | 91 | 87 | 77 | 86 | 81 | 82 | 85 | 73 | 71 | 62 | 95 | 79 | % activity remaining [21]: 71%; % activity remaining [22]: 33%; % activity remaining [23]: 91%; % activity remaining [24]: 72%; % activity remaining [25]: 98%; % activity remaining [26]: 99%; % activity remaining [27]: 90%; % activity remaining [28]: 96%; % activity remaining [29]: 81%; % activity remaining [30]: 71%; % activity remaining [31]: 73%; % activity remaining [32]: 81%; % activity remaining [33]: 94%; % activity remaining [34]: 96%; % activity remaining [35]: 95%
Cc1cc(=O)n(C2CCCC2)c2nc(Nc3ccc(N4CC5CC(C4)N5C)cc3)ncc12 [Compound 9] | 52 | 81 | 90 | 91 | 102 | 86 | 23 | 39 | 90 | 51 | 95 | 61 | 56 | 88 | 54 | 112 | 75 | 29 | 110 | 30 | % activity remaining [21]: 108%; % activity remaining [22]: 21%; % activity remaining [23]: 43%; % activity remaining [24]: 96%; % activity remaining [25]: 105%; % activity remaining [26]: 96%; % activity remaining [27]: 84%; % activity remaining [28]: 86%; % activity remaining [29]: 72%; % activity remaining [30]: 75%; % activity remaining [31]: 78%; % activity remaining [32]: 49%; % activity remaining [33]: 96%; % activity remaining [34]: 97%; % activity remaining [35]: 94%
